Values quoted from earlier work as cited in PMC9781794, “Polyphosphazene-Based Biomaterials for Biomedical Applications” (International Journal of Molecular Sciences, 2022).

Columns and labels:
[1] = tested on: bacterial species (Gram-positive, Gram-negative, and Mycobacteria); design: method as in PMID 36040292; conditions: both Gram-positive and Gram-negative strains; ref [108]
[2] = buffer

Substance	anti-bacterial activity [1]	anti-bacterial potency range [1]	degradation half-life (T1/2) [2]
[N3P3(NHCy)6{Au(PPh3)}2{Ag(PPh3)}](NO3)3 [Sample 13]	excellent	nanomolar range	–
valine	–	–	~ 1 year
